Source: patent US20080051466A1, “Isoalpha acid based protein kinase modulation cancer treatment” (Metaproteomics, LLC, priority 2006, published 2008)

Columns and labels:
Experiment in all cases: KinaseProfiler Assay
Assay type in all cases: biochemical
CHK2 = CHK2 (Homo sapiens, UniProt O96017); details: read-out: CHK2, % of Control
Ron = Ron (Homo sapiens, UniProt Q04912); details: read-out: Ron, % of Control
Tie2 = Tie2 (Homo sapiens, UniProt Q02763); details: 50 ug/ml; read-out: Tie2, % of Control
EphA8 = target: T1, EphA8 (Homo sapiens, UniProt P29322); details: read-out: EphA8, % of Control
T1 sequence (P29322 28-1005): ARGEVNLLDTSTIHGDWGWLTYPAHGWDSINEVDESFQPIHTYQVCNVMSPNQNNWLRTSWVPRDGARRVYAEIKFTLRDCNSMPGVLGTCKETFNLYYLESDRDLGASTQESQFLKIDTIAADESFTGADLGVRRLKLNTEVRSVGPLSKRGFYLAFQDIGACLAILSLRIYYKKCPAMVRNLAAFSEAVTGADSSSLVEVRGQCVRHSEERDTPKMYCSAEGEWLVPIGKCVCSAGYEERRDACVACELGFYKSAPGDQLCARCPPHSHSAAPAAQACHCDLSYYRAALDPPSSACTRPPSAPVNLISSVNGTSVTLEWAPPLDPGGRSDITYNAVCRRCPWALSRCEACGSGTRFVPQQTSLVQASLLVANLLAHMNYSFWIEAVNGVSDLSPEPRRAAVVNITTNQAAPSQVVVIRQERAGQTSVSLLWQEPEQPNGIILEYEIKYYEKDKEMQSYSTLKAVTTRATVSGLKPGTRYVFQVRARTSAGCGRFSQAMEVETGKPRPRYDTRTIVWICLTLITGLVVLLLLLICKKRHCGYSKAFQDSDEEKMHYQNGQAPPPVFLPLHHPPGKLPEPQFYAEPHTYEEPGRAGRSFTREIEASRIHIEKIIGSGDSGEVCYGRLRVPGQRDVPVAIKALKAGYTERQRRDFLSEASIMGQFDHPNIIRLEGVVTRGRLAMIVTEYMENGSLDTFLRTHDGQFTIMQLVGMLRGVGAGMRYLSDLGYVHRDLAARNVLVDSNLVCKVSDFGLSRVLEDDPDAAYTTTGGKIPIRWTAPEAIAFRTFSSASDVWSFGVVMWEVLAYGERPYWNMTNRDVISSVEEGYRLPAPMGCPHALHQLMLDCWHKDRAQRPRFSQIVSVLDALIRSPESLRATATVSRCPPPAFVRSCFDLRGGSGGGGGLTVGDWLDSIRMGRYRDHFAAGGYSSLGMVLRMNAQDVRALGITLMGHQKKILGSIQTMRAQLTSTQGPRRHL

CDK2/cyclinE = CDK2/cyclinE (Homo sapiens, UniProt P24941); details: read-out: CDK2/cyclinE, % of Control
IGF-1R = IGF-1R (Homo sapiens, UniProt P08069); details: read-out: IGF-1R, % of Control
Chain of IGF-1R (P08069 31-1367): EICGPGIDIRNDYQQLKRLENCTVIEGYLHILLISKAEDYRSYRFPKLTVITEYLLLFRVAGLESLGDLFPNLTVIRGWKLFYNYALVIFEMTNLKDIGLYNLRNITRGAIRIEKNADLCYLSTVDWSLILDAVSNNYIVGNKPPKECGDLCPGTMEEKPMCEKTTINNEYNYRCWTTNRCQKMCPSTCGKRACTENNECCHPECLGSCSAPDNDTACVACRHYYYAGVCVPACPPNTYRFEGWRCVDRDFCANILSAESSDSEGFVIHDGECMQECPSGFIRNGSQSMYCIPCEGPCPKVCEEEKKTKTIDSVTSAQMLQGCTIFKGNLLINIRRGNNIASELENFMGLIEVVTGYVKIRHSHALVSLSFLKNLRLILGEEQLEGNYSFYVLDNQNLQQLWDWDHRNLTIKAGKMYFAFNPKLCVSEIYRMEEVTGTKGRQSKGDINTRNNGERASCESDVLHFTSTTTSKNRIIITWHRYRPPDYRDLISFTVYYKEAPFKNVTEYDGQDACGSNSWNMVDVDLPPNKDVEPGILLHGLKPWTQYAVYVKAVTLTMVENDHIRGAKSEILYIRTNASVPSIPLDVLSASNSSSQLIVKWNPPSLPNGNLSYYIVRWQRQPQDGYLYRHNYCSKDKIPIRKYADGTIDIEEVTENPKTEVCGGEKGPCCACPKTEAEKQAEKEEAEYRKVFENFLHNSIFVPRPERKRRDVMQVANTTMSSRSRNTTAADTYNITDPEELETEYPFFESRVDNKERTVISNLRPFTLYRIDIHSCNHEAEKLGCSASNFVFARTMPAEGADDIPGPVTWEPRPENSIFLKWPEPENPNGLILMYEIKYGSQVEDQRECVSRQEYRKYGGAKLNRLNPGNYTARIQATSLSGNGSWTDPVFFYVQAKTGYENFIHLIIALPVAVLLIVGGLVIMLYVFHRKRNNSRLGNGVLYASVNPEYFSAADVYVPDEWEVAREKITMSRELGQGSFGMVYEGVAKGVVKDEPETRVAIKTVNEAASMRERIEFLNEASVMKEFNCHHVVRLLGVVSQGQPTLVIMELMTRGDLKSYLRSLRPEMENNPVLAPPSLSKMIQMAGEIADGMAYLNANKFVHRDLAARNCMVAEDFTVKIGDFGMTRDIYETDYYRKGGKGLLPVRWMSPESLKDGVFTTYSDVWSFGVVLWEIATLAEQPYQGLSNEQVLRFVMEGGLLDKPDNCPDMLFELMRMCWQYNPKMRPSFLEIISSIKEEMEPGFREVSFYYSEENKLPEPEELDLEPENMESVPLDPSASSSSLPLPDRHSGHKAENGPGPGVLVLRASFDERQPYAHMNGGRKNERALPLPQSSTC

Abl(T315I) = Abl(T315I) (Homo sapiens, UniProt P00519, T315I); details: read-out: Abl(T315I), % of Control
DAPK1 = DAPK1 (Homo sapiens, UniProt P53355); details: read-out: DAPK1, % of Control
MINK = MINK (Homo sapiens, UniProt Q8N4C8); details: read-out: MINK, % of Control
Chain of MINK (Q8N4C8 whole entry): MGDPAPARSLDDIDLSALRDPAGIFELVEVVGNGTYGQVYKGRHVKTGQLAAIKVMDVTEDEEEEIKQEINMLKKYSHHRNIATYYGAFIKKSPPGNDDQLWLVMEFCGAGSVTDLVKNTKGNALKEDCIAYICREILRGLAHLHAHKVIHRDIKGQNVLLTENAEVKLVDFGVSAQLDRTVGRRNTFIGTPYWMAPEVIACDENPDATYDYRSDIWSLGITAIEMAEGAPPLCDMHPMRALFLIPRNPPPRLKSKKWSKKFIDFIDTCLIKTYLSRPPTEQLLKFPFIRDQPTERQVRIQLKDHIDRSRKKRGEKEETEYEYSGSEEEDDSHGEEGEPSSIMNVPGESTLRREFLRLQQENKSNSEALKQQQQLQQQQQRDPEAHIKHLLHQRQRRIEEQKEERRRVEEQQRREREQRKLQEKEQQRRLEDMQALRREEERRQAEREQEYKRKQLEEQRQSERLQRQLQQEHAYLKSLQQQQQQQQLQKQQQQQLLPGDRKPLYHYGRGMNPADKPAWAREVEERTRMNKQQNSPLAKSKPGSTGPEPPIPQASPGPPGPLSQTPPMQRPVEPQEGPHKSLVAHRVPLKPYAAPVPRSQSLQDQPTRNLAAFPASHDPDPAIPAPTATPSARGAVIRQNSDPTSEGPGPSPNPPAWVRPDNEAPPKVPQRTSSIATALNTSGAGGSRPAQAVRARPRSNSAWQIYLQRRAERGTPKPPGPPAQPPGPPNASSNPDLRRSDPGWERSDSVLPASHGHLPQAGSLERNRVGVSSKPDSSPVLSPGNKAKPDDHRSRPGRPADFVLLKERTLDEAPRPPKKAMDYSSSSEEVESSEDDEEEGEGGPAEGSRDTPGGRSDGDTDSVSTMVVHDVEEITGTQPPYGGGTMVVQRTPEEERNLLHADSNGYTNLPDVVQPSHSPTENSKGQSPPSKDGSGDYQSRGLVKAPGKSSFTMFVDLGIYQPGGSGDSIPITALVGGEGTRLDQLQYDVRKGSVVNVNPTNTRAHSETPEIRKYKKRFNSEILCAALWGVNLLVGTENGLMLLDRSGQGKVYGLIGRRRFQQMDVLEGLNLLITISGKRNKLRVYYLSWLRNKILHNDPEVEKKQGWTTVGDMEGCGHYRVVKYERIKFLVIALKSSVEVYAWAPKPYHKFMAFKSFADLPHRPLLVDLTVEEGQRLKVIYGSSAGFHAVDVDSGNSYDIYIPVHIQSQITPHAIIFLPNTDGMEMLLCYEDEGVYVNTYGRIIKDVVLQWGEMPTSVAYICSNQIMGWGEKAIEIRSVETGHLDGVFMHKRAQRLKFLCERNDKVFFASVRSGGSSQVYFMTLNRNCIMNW

CDK2/cyclinA = CDK2/cyclinA (Homo sapiens, UniProt P24941); details: read-out: CDK2/cyclinA, % of Control
PKBα = PKBα (Homo sapiens, UniProt P31749); details: read-out: PKBα, % of Control
Chain of PKBα (P31749 whole entry): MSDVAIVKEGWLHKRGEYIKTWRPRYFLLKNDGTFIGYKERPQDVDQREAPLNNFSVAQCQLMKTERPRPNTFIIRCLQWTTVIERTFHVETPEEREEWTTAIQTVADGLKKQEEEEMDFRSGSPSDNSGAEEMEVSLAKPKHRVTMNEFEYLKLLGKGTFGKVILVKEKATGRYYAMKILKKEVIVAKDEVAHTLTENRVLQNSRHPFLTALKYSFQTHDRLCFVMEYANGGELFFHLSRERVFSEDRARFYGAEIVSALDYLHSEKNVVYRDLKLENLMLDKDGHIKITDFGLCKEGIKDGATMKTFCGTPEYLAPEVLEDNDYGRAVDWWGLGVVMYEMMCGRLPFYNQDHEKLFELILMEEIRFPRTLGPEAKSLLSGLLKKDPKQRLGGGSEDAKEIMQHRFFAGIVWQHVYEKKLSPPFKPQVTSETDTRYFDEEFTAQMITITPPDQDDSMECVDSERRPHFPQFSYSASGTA

PhKγ2 = target: T2, PhKγ2 (Homo sapiens, UniProt P15735); details: read-out: PhKγ2, % of Control
T2 sequence (P15735 1-406): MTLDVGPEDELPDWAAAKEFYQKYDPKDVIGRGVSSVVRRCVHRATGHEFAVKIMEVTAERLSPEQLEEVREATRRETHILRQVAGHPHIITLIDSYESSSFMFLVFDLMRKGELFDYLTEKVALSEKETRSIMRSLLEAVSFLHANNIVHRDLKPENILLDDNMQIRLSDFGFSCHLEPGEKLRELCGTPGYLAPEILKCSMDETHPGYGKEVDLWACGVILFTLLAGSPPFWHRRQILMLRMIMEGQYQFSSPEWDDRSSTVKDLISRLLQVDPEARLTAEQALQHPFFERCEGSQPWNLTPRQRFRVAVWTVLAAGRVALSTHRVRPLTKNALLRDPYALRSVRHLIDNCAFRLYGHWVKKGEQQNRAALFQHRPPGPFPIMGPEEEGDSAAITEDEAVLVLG

Chain of Ron (Q04912 25-1400): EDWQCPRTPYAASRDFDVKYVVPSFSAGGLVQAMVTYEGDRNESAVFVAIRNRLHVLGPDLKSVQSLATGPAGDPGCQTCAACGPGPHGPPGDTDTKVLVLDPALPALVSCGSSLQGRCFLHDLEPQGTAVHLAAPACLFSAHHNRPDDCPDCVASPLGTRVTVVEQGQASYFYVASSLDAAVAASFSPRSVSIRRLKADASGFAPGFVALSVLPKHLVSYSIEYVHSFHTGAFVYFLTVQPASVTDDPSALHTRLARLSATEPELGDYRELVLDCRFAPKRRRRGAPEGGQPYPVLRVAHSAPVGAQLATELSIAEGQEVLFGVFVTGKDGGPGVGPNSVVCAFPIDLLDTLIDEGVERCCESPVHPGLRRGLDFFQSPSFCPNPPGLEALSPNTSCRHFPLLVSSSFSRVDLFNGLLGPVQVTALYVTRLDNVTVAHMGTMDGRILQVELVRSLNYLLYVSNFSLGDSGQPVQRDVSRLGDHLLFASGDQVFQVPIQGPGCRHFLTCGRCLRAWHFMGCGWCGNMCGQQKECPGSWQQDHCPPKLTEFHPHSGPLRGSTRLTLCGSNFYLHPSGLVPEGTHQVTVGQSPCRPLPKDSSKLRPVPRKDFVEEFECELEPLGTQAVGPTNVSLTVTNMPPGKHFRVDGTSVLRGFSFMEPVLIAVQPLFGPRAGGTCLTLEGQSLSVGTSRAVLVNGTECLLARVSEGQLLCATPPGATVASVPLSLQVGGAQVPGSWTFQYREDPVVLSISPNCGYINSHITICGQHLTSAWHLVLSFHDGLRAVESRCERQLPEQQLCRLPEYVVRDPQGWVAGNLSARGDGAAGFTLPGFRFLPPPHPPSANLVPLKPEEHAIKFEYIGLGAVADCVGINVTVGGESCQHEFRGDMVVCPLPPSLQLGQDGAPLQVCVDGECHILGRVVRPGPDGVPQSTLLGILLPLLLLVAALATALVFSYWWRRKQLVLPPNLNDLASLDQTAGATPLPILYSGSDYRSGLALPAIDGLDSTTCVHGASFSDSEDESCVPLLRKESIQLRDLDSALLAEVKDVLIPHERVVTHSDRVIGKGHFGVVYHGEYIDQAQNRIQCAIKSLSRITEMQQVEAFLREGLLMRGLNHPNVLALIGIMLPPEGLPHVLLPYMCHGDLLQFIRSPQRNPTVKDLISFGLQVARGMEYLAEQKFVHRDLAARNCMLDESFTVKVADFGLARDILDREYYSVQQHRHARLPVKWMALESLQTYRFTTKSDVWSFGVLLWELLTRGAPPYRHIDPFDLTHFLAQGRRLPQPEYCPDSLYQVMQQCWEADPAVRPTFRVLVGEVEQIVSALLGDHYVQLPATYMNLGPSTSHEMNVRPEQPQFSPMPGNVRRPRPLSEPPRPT
Chain of CHK2 (O96017 whole entry): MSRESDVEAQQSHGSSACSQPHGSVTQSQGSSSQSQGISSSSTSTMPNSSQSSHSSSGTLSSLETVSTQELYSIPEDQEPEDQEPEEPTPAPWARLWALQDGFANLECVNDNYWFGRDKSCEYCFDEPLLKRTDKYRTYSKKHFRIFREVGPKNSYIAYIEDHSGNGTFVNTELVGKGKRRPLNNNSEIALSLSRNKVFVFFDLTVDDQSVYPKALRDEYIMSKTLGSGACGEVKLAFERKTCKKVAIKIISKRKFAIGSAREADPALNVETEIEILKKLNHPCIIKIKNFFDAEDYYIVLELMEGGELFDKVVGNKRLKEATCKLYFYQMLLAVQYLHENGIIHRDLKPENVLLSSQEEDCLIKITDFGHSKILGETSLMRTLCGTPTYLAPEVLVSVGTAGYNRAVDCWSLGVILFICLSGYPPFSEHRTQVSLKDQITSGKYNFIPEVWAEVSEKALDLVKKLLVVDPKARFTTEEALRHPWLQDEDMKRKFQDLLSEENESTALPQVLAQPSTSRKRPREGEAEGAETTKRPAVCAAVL

COc1cc(O)c(CC=C(C)C)c(O)c1C(=O)/C=C/c1ccc(O)cc1 [Xanthohumol, xanthohumol]
remaining activity at 1 µg/mL (CHK2; 1 ug/ml): 25% | remaining activity at 5 µg/mL (CHK2; 5 ug/ml): 5% | remaining activity at 25 µg/mL (CHK2; 25 ug/ml): 3% | remaining activity at 1 µg/mL (Ron; 1 ug/ml): 135% | remaining activity at 5 µg/mL (Ron; 5 ug/ml): 127% | remaining activity at 25 µg/mL (Ron; 25 ug/ml): 60% | remaining activity at 50 µg/mL (Ron; 50 ug/ml): 69% | remaining activity at 50 µg/mL (Tie2): 35% | remaining activity at 1 µg/mL (EphA8; 1 ug/ml): 103% | remaining activity at 5 µg/mL (EphA8; 5 ug/ml): 92% | remaining activity at 25 µg/mL (EphA8; 25 ug/ml): 29% | remaining activity at 50 µg/mL (EphA8; 50 ug/ml): 19% | remaining activity at 1 µg/mL (CDK2/cyclinE; 1 ug/ml): 82% | remaining activity at 5 µg/mL (CDK2/cyclinE; 5 ug/ml): 86% | remaining activity at 25 µg/mL (CDK2/cyclinE; 25 ug/ml): 18% | remaining activity at 25 µg/mL (IGF-1R; 25 ug/ml): 129% | remaining activity at 50 µg/mL (IGF-1R; 50 ug/ml): 139% | remaining activity at 1 µg/mL (Abl(T315I); 1 ug/ml): 126% | remaining activity at 5 µg/mL (Abl(T315I); 5 ug/ml): 115% | remaining activity at 25 µg/mL (Abl(T315I); 25 ug/ml): 16% | remaining activity at 5 µg/mL (DAPK1; 5 ug/ml): 85% | remaining activity at 50 µg/mL (DAPK1; 50 ug/ml): 20% | remaining activity at 1 µg/mL (MINK; 1 ug/ml): 42% | remaining activity at 5 µg/mL (MINK; 5 ug/ml): 10% | remaining activity at 25 µg/mL (MINK; 25 ug/ml): 5% | remaining activity at 50 µg/mL (MINK; 50 ug/ml): 7% | remaining activity at 1 µg/mL (CDK2/cyclinA; 1 ug/ml): 107% | remaining activity at 5 µg/mL (CDK2/cyclinA; 5 ug/ml): 96% | remaining activity at 25 µg/mL (CDK2/cyclinA; 25 ug/ml): 57% | remaining activity at 50 µg/mL (CDK2/cyclinA; 50 ug/ml): 6% | remaining activity at 1 µg/mL (PKBα; 1 ug/ml): 102% | remaining activity at 25 µg/mL (PKBα; 25 ug/ml): 18% | remaining activity at 50 µg/mL (PKBα; 50 ug/ml): 5% | remaining activity at 1 µg/mL (PhKγ2; 1 ug/ml): 106% | remaining activity at 5 µg/mL (PhKγ2; 5 ug/ml): 60% | remaining activity at 25 µg/mL (PhKγ2; 25 ug/ml): 11% | remaining activity at 50 µg/mL (PhKγ2; 50 ug/ml): 5%
